These results are taken from patent US11484032B2, “Compositions for inhibition of insect sensing” (Vanderbilt University, priority 2011, dated 2022).

One test concerns HvOR2. Briefly: Whole-cell patch clamp, HEK cells transiently expressing HvOR2. The test is classed as cell-based, Heliothis virescens. Conditions: HvOR2 transiently transfected HEK cells. The text has this: For transient transfections, ORs were cloned into pCl (Promega) and transfected into Flp-In™ T-REx™293 cell lines (Invitrogen) with Fu GENE6 (Roche). For the creation of stable cell lines, a cell culture expression vector capable of expressing Orco in conjunction with a conventional OR, pcDNA5/FRT/TO (Invitrogen) was modified to create two individual expression cassettes each under the control of a separate CMV/Tet02 promoter and a BGH poly-adenylation signal. Cells (as above) were transfected with the modified pcDNA5 plasmid along with POG44 (a Flp recombinase expression plasmid) to facilitate site-specific recombination. Stable cell lines were selected using Hygromycin B (Invitrogen). Cells were maintained in DMEM (Invitrogen) supplemented with 10% Tetracycline-free FBS (HyClone) and 15 ng/ml Blasticidin. […] Baseline readings were taken for 20 s before automated addition of compound previously diluted in DMSO and assay buffer. […]
Currents from OR-expressing HEK293 cells were amplified with an Axopatch 200b Amplifier (Axon Instruments) and digitized through a Digidata 1322A (Axon Instruments). Electrophysiological data was recorded and analyzed using pCLAMP 10 (Axon Instruments). […]
(Patch clamp records ionic current or voltage across a cell membrane.)

The next test deals with T1, AgOrco+AgOR65 (Anopheles gambiae, UniProt Q7QCC7).
T1 construct: expressed in transfected cells
T1 sequence (Q7QCC7 1-478): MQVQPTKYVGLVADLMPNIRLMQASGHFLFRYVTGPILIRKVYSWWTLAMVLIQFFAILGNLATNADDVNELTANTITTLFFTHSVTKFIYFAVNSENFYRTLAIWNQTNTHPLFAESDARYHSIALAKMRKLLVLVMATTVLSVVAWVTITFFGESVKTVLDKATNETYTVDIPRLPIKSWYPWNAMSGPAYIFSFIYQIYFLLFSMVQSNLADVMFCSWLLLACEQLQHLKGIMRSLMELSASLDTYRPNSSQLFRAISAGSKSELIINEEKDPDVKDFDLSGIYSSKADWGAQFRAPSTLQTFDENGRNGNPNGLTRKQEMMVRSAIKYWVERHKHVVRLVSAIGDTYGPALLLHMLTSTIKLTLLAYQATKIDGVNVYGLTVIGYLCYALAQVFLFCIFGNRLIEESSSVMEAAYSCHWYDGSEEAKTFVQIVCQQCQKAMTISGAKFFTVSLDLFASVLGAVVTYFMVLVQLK
Briefly: Ca2+ imaging, HEK cells expressing AgOrco+AgOR65. Conditions: heteromeric OR channels AgOrco+AgOR65; read-out: EC50. The test is classed as cell-based. The text has this: For transient transfections, ORs were cloned into pCl (Promega) and transfected into Flp-In™ T-REx™293 cell lines (Invitrogen) with Fu GENE6 (Roche). For the creation of stable cell lines, a cell culture expression vector capable of expressing Orco in conjunction with a conventional OR, pcDNA5/FRT/TO (Invitrogen) was modified to create two individual expression cassettes each under the control of a separate CMV/Tet02 promoter and a BGH poly-adenylation signal. Cells (as above) were transfected with the modified pcDNA5 plasmid along with POG44 (a Flp recombinase expression plasmid) to facilitate site-specific recombination. Stable cell lines were selected using Hygromycin B (Invitrogen). Cells were maintained in DMEM (Invitrogen) supplemented with 10% Tetracycline-free FBS (HyClone) and 15 ng/ml Blasticidin. For fluorometric Ca2+ measurements, stable lines expressing ORs of interest were seeded at 20,000 cells/well in black wall, poly-lysine coated 384-well cell culture plates (Greiner) and treated with […] tetracycline (Sigma) overnight to induce OR expression. Cells were dye-loaded with 1.8 uM Fluo-4 AM (Molecular Probes), 2.5 mM Probenecid (Molecular Probes) in assay buffer (20 mM HEPES, IX HBSS) for 45 minutes at 37° C. in 5% CO2 prior to each assay. Ca^2+ mobilization was assayed in an FDSS6000 (Hamamatsu). Baseline readings were taken for 20 s before automated addition of compound previously diluted in DMSO and assay buffer. Ratios were described as Maximum/Minimum response and each response was normalized to the maximum responder.
For VUAA0, a single methyl from the para position of the aniline ring (compound VUAA0, FIG. 44) in the VUAA1 structure was removed. […] In VUAA0.5, unsaturation was introduced at the para position of the aniline ring (VUAA0.5, FIG. 44). […] In VUAA2, the ethyl group of the aniline ring in VUAA1 was replaced with an isopropyl group (VUAA2, FIG. 44).

Another test has as its target T2, AgORco+AgOR10 (Anopheles gambiae, UniProt Q7QCC7).
T2 construct: expressed in transfected cells
T2 sequence (Q7QCC7 1-478): T1 sequence (Q7QCC7 1-478)
Briefly: Whole-cell patch clamp, HEK293 cells expressing AgORco+AgOR10. Format: cell-based. The method, then: (§1) Currents from OR-expressing HEK293 cells were amplified with an Axopatch 200b Amplifier (Axon Instruments) and digitized through a Digidata 1322A (Axon Instruments). Electrophysiological data was recorded and analyzed using pCLAMP 10 (Axon Instruments). Electrodes were fabricated from quartz tubing (Sutter Instruments) and pulled to 4-6 MiΩ for whole cell recording. Electrodes were filled with internal solution (120 mM KCl, 30 mM D-glucose, 10 mM HEPES, 2 mM MgCl2, 1.1 mM EGTA, and 0.1 CaCl2) (pH 7.35, 280 mOsm). External (bath) solution contained 130 mM NaCl, 34 mM D-glucose, 10 mM HEPES, 1.5 mM CaCl2), 1.3 mM KH2PO4, and 0.5 MgSO4 (pH 7.35, 300 mOsm). Compounds were diluted in external solution and locally perfused to the recording cell using Perfusion Pencil (Automate Scientific) and controlled by a ValveLink 8.2 controller (Automate Scientific). Whole cell recordings were sampled at 10 kHz and filtered at 5 kHz. Outside-out patches were obtained using 10-15MΩ electrodes pulled from standard glass capillaries (World Precision Instruments) and fire-polished with an MF-830 micro forge (Narishige). Single channel recordings were sampled at 20 kHz. Recordings were reduced to 1 kHz and low-pass filtered at 500 Hz for display and analysis using QuB (SUNY at Buffalo).
To test the hypothesis that VUAA1 directly agonized AgORco, whole-cell patch clamp responses were examined in AgORco+AgOR10 expressing cells as well as HEK293 cells stably expressing AgORco alone. […] The VUAA1-dependent currents in AgORco+AgOR10 cells resembled those resulting from application of benzaldehyde, an orthosteric agonist of AgOR10 (FIG. 3C) (Wang, 2010; Carey, 2010). […] To investigate the specificity of VUAA1 agonism, the inventors transiently transfected HEK cells with the AgORco orthologs of Drosophila melanogaster and Heliothis virescens, DmORco and HvOR2 respectively.

The target in test [1] is T3, rat transient receptor potential vanilloid 1 (rTRPV1) (Rattus norvegicus, UniProt O35433).
T3 construct: expressed in transfected cells
As to the kind of experiment: Whole-cell patch clamp, HEK cells stably expressing rTRPV1. The test is classed as cell-based.

A further test concerns the target T4, AgORco (Anopheles gambiae, UniProt Q7QCC7).
T4 construct: expressed in transfected cells
T4 sequence (Q7QCC7 1-478): T1 sequence (Q7QCC7 1-478)
As to the kind of experiment: Single-channel recording, outside-out patches from AgORco-expressing HEK293 cells. The test is classed as biochemical. The method, then:
as §1, with “Buffalo). […]” for “Buffalo).”

Test [2] concerns Un-transfected HEK293 cells. Briefly: Whole-cell patch clamp, un-transfected HEK293 control cells. Format: cell-based, human. The method, then: as §1

T3 sequence (O35433 whole entry): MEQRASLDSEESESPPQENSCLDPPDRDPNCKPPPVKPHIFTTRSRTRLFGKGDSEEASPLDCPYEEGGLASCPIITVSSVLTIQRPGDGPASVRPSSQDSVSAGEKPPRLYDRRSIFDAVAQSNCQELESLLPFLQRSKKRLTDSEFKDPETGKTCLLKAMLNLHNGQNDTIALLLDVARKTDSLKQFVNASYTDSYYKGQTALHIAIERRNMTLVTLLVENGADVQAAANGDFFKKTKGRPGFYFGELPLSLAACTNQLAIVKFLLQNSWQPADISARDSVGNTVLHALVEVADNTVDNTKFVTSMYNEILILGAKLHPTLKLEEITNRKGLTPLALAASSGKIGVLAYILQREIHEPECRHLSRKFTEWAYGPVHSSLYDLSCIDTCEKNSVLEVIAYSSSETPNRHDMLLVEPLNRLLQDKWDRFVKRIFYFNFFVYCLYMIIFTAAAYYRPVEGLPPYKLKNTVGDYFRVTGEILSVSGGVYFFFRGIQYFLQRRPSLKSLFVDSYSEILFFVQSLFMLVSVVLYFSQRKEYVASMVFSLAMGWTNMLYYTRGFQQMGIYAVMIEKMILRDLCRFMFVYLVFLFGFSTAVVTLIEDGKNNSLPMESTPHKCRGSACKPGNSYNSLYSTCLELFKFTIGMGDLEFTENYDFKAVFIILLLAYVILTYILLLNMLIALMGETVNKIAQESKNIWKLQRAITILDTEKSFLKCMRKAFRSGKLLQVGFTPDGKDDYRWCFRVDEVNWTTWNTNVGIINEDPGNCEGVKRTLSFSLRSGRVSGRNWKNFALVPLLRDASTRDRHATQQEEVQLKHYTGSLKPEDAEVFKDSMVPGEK

On to `CCc1ccc(NC(=O)CSc2nnc(-c3cccnc3)n2CC)cc1` [VUAA1, 2-((4-ethyl-5-(pyridin-3-yl)-4H-1,2,4-triazol-3-yl)thio)-N-(4-ethylphenyl)acetamide], for which the whole-cell current response entry in the test on HvOR2 was “robust inward currents”; at AgORco+AgOR10 (AgORco+AgOR10 cells, holding potential −60 mV) it was “concentration-dependent inward currents”; in test [1], “did not elicit currents”; in test [2], “did not respond”. Further, the EC50 at AgOrco+AgOR65 turned out to be 37 µM. In addition, the “reversal potential of agonist-induced current” value on AgORco+AgOR10 (AgORco+AgOR10 complexes, mean s.e.m.) was −4.8±3.0 mV. In addition, the “whole-cell current response at −5.0 log M” value at AgORco+AgOR10 (−5.0 log M) was “inward currents”. For the same compound, the “average unitary current of AgORco” value at AgORco (VUAA1-evoked, mean±st. dev.) turned out to be 1.3±0.3 pA. Also, the “channel opening probability P0” value on AgORco (during 5 s application of −4.0 log M VUAA1, patch held at −60 mV) was 0.38.

Broadly, the EC50 is the midpoint of the concentration-response curve.
